In US9820968B2, “Anti-leukemic agent useful for inducing differentiation in myeloid leukemia cells” (Council of Scientific and Industrial Research, priority 2013, dated 2017):
Like-named read-outs stand apart in the source and are kept apart here.

Key:
[1] = tested on: U937 cells; assay: Morphology after long ORM treatment, U937 cells; format: cell-based; conditions: U937, 1 uM ORM, 12 and 15 days
Method: (§1) FIG. 7: ORM at 1 uM dose induces differentiation like morphology both in HL60 and U937 cells: (a) HL60 and (b) U937 cells were treated with 1 uM ORM for 12 and 15 days and there was change in the morphology of cells by decrease in the nuclear and cytoplasmic ratio and formation of multilobed nuclei which is typical for neutrophilic differentiation.
(§2) 3. Giemsa staining: Giemsa stain is used to differentiate nuclear and cytoplasmic morphology of blood cells. After induction with 1 uM ORM for 12 days cells were cytospun on slides at 800 rpm for 5 min and were air dried. Cells were stained with Giemsa stain (Sigma) as per manufacturer's protocol. Cells were visualized microscopically for the morphological changes.
(§3) Profound granulocytic differentiation inducing property of ormeloxifene in K562 prompted us to investigate if ORM can also induce such differentiation in other myeloid leukemia cell lines. So we further chose HL60 and U937, a promyelocyte and myelomonocyte leukemia cell line. These cells differentiate to granulocyte lineage upon induction with all trans-retinoic acid (ATRA) and represent a very good model cell line for such differentiation assays. These cells were treated with 1 uM ORM for longer duration of 12 and 15 days followed by assessment of granulocytic/neutrophil like morphology.

[2] = tested on: K562 cells; assay: ROS generation by flow cytometry (DCF-DA), K562 cells; format: cell-based; conditions: K562, 1 uM ORM
Method: FIG. 5: ORM at a dose of 1 uM induces ROS generation: A property of activated neutrophils: Flow cytometry analysis was performed for the ROS generation in K562 cells after treatment with 1 uM ORM for 24 h and 48 h. Cells were labeled with DCF-DA dye and fluorescence was measured.
Furthermore, ORM induces granulocytic differentiation in K562 cells, it should lead to terminal differentiation of these cells to activated neutrophils. To substantiate further the induction of granulocytic differentiation and neutrophil formation, we measured the ROS generation, which is a property of activated neutrophils by FACS flow cytometer.

[3] = tested on: Salmonella; conditions: Giri et al., Mutagenesis 1999; cited from earlier work
[4] = tested on: HL60, U937 and K562 cells; conditions: P. Pal et al., Proteomics 2011, read-out: IC50 inducing apoptosis; cited from earlier work
[5] = tested on: myeloid leukemia cells (U937, HL60, K562); assay: MTT cell viability assay, myeloid leukemia cells; format: cell-based; conditions: leukemic cells (U937, HL60, K562), read-out: 50% growth inhibitory concentration (IC50)
Method: FIG. 1: ORM induces cell toxicity in myeloid leukemia cells: (a) Chemical structure of ormeloxifene. […] Assay was performed on 3 replicates for each treatment and repeated twice.
(§4) 2. MTT assay: Post 6 h synchronization, 1×10^4 cells per well were incubated at 37° C. in 96-well plastic plates with test drugs containing 10% FBS in an environment of 5% humified CO2. After 48 hrs, cell viability was assessed by the ability of metabolically active cells to reduce tetrazolium salt […] to coloured formazan compounds. The absorbance of the samples was measured with a specific enzyme-linked immunosorbent assay (ELISA) reader at 560 nm.
(§5) To calculate 50% growth inhibitory concentration (IC50) of ormeloxifene, various myeloid leukemia cells (U937, HL60, K562) and HEK293T as control were assayed with different doses of ormeloxifene for cell viability in MTT Assay. […] Various apoptosis assays were performed in myeloid leukemia cells upon treatment with ormeloxifene that induces G0-G1 phase growth arrest and caspase mediated apoptosis in myeloid leukemia via ERK activation.

[6] = tested on: HEK293T; assay: MTT cell viability assay, HEK293T control; format: cell-based; conditions: Homo sapiens, HEK-293T, 293T control cells, 48 hrs, read-out: 50% growth inhibitory concentration (IC50)
Method: as §4, §5

[7] = tested on: advanced breast cancer; conditions: cited from earlier work
[8] = tested on: K562 cells; assay: Giemsa staining morphology, K562 cells; format: cell-based
Method: as §2
To further corroborate the differentiation inducing potential of ORM, K562 cells were again treated with 1.0 uM ORM and vehicle for 12 days followed by cytospin and staining with Giemsa for assessment of morphological changes. […] It is noteworthy to mention here that at higher doses (5 uM to 7.5 uM) there is early onset of myeloid differentiation (72 h for 5 uM and 24,48 h for 7.5 uM) with reduced no. of cells which is likely due to apoptotic effects of ORM at higher dose. In contrary, at lower doses (1 uM) differentiation is observed after longer duration (6-15 days) with quite reduced apoptotic effect.

[9] = tested on: K562 cells; assay: FACS flow cytometry for cd11b in K562 cells; format: cell-based; conditions: 24 and 48 h
Method: (§6) 7. FACS analysis: Cells were treated with 1 uM ORM for 24 h and 48 h. Then they were washed with 1×PBS and resuspended in antibody solution along with their respective IgG isotype control for 15-20 min as per manufacturer's protocol. Cells were washed once with PBS and were resuspended in 500 ul of PBS. After this flow cytometry was done for PI labeled cells for cd11b and cd114 differentiation markers (BD Biosciences).
(§7) K562 cells were treated with 1 μM (Subapoptotic dose) and 7.5 μM ORM (Apoptotic dose) for 24 h and 48 hrs. Post 24 h and 48 h treatment, cells were analyzed in FACS-flow cytometer for the presence of myeloid differentiation marker cd11b (FIG. 2). In parallel, HL60 cells were also treated with 1uM All-Trans-Retinoic Acid (ATRA) for 72 hrs which served as control for induction of differentiation. […] Isotype IgG-PE antibody served as negative control.

[10] = tested on: primary cells isolated from CML patients; assay: FACS for cd11b and cd114 in primary mononuclear cells from CML patients; format: cell-based, human; conditions: CML patient mononuclear cells, 1 uM ORM, 24 and 48 hr
Method: FIG. 6: ORM induces myeloid differentiation in primary cells isolated from CML patients PBMCs were isolated from patient samples and were analyzed by FACS for cd11b positive cells.
6. PBMC separation from patient sample: 10 ml peripheral blood was collected by venipuncture heparin-containing 20 ml vials. Peripheral blood mononuclear cells were isolated using density gradient centrifugation with Ficoll-Paque (1.077 g/ml). Peripheral blood was mixed in 1:1 v/v of MACS buffer and was fractionated through Ficoll-Paque. Mononuclear cells were collected from the interface, washed twice in MACS buffer and resuspended in RPMI 1640 at 37° C. in the humidified atmosphere of 5% CO2.
as §6, with “After this flow cytometry was done for PI labeled cells for cd11b and cd114 differentiation markers (BD Biosciences).” left out
Although recent studies using differentiation therapies in oncology have been successful for acute promyelocytic leukemia (APL) with the use of all-trans retinoic acid (ATRA) (S. Waxman, Leukemia, 2000, 14(3):491-496), little is known about exact mechanisms of differentiation. […] Cells were treated with 1 uM ORM and were analyzed for expression of cd11b and cd114 surface markers after 24 and 48 hr.

[11] = tested on: K562 cells; assay: Real time and semi quantitative PCR of differentiation markers, K562 cells; format: cell-based
Method: 5. Quantitative PCR (Real Time) and semi quantitative PCR Analysis: After induction of cells with ORM for indicated time points cells were harvested and RNA was isolated using Trizol reagent. Trizol was added to 1×10^6 cells for 5 min at room temp. Lysed cells were collected in micro centrifuge tubes and shaken vigorously for 15 sec, and incubated for 3 min at RT. 200 μl of chloroform was added to each sample and incubated yet again for 5 min at RT. Cells were centrifuged at 15,000 rpm for 15 min at 4° C. Supernatant was collected in fresh tube; 1 ml isopropanol was added and incubated for 10 min at RT. Pellet was washed once with 70% ethanol and RNA concentration was quantified. Further, RNA was retro-transcribed into cDNA and subsequently used for quantitative PCR analysis on Roche Light Cycler 480 using SYBR green master mix from Applied Biosystems. Statistical analysis was performed using ΔΔCT method. Reverse transcriptase PCR was done to check the mRNA level expression of GCSFr qualitatively. RT-PCR analysis was performed using standardized PCR protocol on BioRad C1000 Thermal Cycler.

[12] = tested on: K562 cells; assay: NBT reduction assay, K562 cells; format: cell-based; conditions: K562, 7.5 uM ORM 24 h and 48 hrs, 1 uM 6 days
Method: 4. NBT assay: The NBT Assay relies on the accumulation of blue black formazan precipitate. The membrane permeable, water soluble, yellow NBT is reduced to blue black formazan by O^−2, which is generated by activated neutrophils/phagocytes, typically by PMA. PMA activates NADPH oxidase by enhancing protein kinase C (PKC) and thus stimulates production of ROS (reactive oxygen species). After induction with 7.5 uM ORM for 24 h and 48 hr and with 1 uM ORM for 6 days cells were incubated in NBT solution for 15 min. at 37° C. Cells were washed with PBS and were resuspended in 500 ul PBS and cytospun on slides and stained with safranin O for 1 min. Number of cells showing blue-purple colouration were counted under microscope.
In order to further confirm the ORM induced differentiation in myeloid leukemia cells, Nitro Blue Tetrazolium (NBT) reduction assay is carried out which is a biochemical assay wherein activated granulocytes can reduce NBT to insoluble purple blue colour precipitates. Further, because ORM induces apoptosis at 7.5 uM in K562 cells; we treated K562 cells with 7.5 uM for 24 h and 48 hrs and 1 uM doses for longer duration, 6 days. Cells were subjected for NBT reduction analysis. […] This further confirmed differentiation inducing potential of ORM.

[13] = tested on: HL60 cells; assay: Morphology after long ORM treatment, HL60 cells; format: cell-based; conditions: HL60, 1 uM ORM, 12 and 15 days
Method: as §1, §2, §3

[14] = tested on: HL60 cells; assay: FACS flow cytometry for cd11b in HL60 cells (differentiation control); format: cell-based; conditions: HL60, 1 uM ATRA, 72 hrs
Method: as §7

[15] = K562, 1 uM ORM, 24 and 48 h, real time PCR

COc1ccc2c(c1)OC(C)(C)C(c1ccccc1)C2c1ccc(OCCN2CCCC2)cc1 (stereo not drawn) [ORM, 3,4-trans-2,2-dimethyl-3-phenyl-4-p-(beta-pyrrolidinoethoxy)phenyl-7-methoxychroman]
granulocytic/neutrophil like morphology [1]: large number of cells with multilobed nucleus
ROS generation [2]: Significant upregulation in ROS generation
mutagenic effects of DMBA, CP, MMC and EMS [3]: can reduce the mutagenic effects
IC50 [4]: 7.5 µM
IC50 ([5]; 48 h): ~7.5 µM
IC50 ([5]; 48 hrs): ~7 µM
IC50 [6]: 25 µM
overall response rate ([7]; both male and female cases (4 male, 75 female)): 40.5%
overall response rate ([7]; female patients): 38.7%
morphological changes (Giemsa) ([8]; K562, 1.0 uM ORM, 12 days): differentiated cells having neutrophil like morphology were observed
morphological changes (Giemsa) ([8]; K562, 5 uM ORM, 72 hrs): neutrophil like morphological changes
cells expressing cd11b marker ([9]; K562, 1.0 uM ORM): increased percentage of cells expressing CD11b markers
cells expressing cd11b marker ([9]; K562, 7.5 uM ORM): Reduced number of cd11b expressing cells
expression of cd11b surface marker [10]: significant upregulation
expression of cd114 surface marker [10]: significant upregulation
C/EBP epsilon mRNA expression [11, 15]: increased mRNA expression
C/EBPalpha mRNA expression [11, 15]: increased mRNA expression
GCSFr mRNA expression [11, 15]: increased mRNA expression
cd11b mRNA expression [11, 15]: increased mRNA expression
GCSFr mRNA expression ([11]; K562, 7.5 uM ORM, 24 h and 48 h, quantitative and semi quantitative PCR): modest upregulation
level of GCSFr ([11]; K562, Reverse transcriptase-PCR (FIG. 4f, g)): marked increase
NBT reduction [12]: dramatic increase in NBT reduction
granulocytic/neutrophil like morphology [13]: large number of cells with multilobed nucleus

CC1=C(/C=C/C(C)=C/C=C/C(C)=C/C(=O)O)C(C)(C)CCC1 [ATRA, All-Trans-Retinoic Acid]
cd11b early myeloid differentiation marker [14]: increased
